# Source: US5523315A, “N-(hydroxyethyl)butanediamide derivatives” (Bio-Mega/Boehringer Ingelheim Research Inc., priority 1993, dated 1996)
# Molecular target: T1, human renin (Homo sapiens, UniProt P00797)
# T1 construct: A human plasma pool is used as the source of both the substrate (angiotensinogen) and the enzyme (renin); from tissue; host or cells: pooled human plasma
# T1 sequence (P00797 67-406): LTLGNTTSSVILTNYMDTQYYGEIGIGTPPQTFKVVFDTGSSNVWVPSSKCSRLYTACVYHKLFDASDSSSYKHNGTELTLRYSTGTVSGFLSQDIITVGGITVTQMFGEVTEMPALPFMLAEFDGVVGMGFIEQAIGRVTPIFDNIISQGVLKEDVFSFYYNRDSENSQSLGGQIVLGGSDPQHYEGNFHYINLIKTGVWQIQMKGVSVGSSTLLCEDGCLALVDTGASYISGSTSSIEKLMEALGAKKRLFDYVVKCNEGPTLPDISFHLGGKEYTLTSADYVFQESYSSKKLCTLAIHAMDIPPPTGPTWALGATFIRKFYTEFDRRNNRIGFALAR
# Test: plasma renin assay (inhibition of human renin; angiotensin I generated, measured by radioimmunoassay)
# Type: biochemical
# Conditions: human plasma pool, pH 6.0, 2 h incubation at 37°
# Description: The assay is performed as follows: The test compound (i.e. the inhibitor) is dissolved in dimethylsulfoxide (1 mM stock solution) and diluted with an aqueous buffer solution of 270 mM 2-(N-morpholino)ethanesulfonic acid and 1% human serum albumin (pH 5.85, also containing dimercaprol and 8-hydroxyquinoline sulfate in accordance with the instructions of the RIA kit noted below) to give an assay mixture in which the final dimethylsulfoxide content is 1% (v/v).
# A human plasma pool is used as the source of both the substrate (angiotensinogen) and the enzyme (renin). The reaction is initiated by the addition of 50 μL of human plasma pool to 50 μL of various concentrations of inhibitor in the 1% dimethylsulfoxide assay buffer. The plasma renin activity is measured by the amount of angiotensin I generated at pH 6.0 following a 2 h incubation at 37°.
# Quantitation of angiotensin I is performed by radioimmunoassay (RIA kit from New England Nuclear-Dupont, Mississauga, ON, Canada). The enzymatic activity of renin is expressed in ng of angiotensin I generated (/mL/2 h). The extent of inhibition of the reaction is determined from the amount of angiotensin I generated in reference to a control prepared without inhibitor. Nonlinear regression analysis is used to calculate the IC50 values, i.e. the molar concentration of the test compound required to cause a 50% inhibition of the enzyme activity.
row,IC50 [nM],SMILES
1,1.3,"CC(C)C[C@H](O)[C@H](O)[C@H](CC1CCCCC1)NC(=O)[C@@H](CC(=O)N(CC(=O)N(C)C)CC1(O)CCCCC1)Cc1csc(N)n1 [Compound 46, N^4-[2-(dimethylamino)-2-oxoethyl]-N^4-[(1-hydroxycyclohexyl)methyl]-N^1-[1(S)-(cyclohexylmethyl)-2(R),3(S)-dihydroxy-5-methylhexyl]-2(R)-[(2-amino-4-thiazolyl)methyl]butanediamide]"
2,94,"CC(C)C[C@H](O)[C@H](O)[C@H](CC1CCCCC1)NC(=O)[C@@H](CC(=O)NCC1(O)CCCCC1)CC1CC1 [Compound 17, N^4-[(1-hydroxycyclohexyl)methyl]-N^1-[1(S)-(cyclohexylmethyl)-2(R),3(S)-dihydroxy-5-methylhexyl]-2(R)-(cyclopropylmethyl)butanediamide]"
3,27,"CCC[C@H](CC(=O)N(Cc1ccccc1)CC1(O)CCCCC1)C(=O)N[C@@H](CC1CCCCC1)[C@@H](O)[C@@H](O)CC(C)C [Compound 2, N^4-benzyl-N^4-[(1-hydroxycyclohexyl)methyl]-N^1-[1(S)-(cyclohexylmethyl)-2(R),3(S)-dihydroxy-5-methylhexyl]-2(R)-propylbutanediamide]"
4,79,"CC(C)C[C@H](O)[C@H](O)[C@H](CC1CCCCC1)NC(=O)[C@@H](CC(=O)N(CC1CCCCC1)CC1(O)CCCCC1)CC1CC1 [Compound 25, N^4-(cyclohexylmethyl)-N^4-[(1-hydroxycyclohexyl)methyl]-N^1-[1(S)-(cyclohexylmethyl)-2(R),3(S)-dihydroxy-5-methylhexyl]2(R)-(cyclopropylmethyl)butanediamide]"
5,35,"CC(C)C[C@H](O)[C@H](O)[C@H](CC1CCCCC1)NC(=O)[C@@H](CC(=O)N(CCO)CC1(O)CCCCC1)CC1CC1 [Compound 5, N^4-[(1-hydroxycyclohexyl)methyl]-N^4-(2-hydroxyethyl)-N^1-[1(S)-(cyclohexylmethyl)-2(R),3(S)-dihydroxy-5-methylhexyl]-2(R)-(cyclopropylmethyl)butanediamide]"
6,80,"CC(C)C[C@H](O)[C@H](O)[C@H](CC1CCCCC1)NC(=O)[C@@H](CC(=O)N(Cc1ncc[nH]1)CC1(O)CCCCC1)CC1CC1 [Compound 15, N^4-[(1-hydroxycyclohexyl)methyl]-N^4-(1H-imidazol-2-ylmethyl)-N^1-[1(S)-(cyclohexylmethyl)-2(R),3(S)-dihydroxy-5-methylhexyl]-2(R)-(cyclopropylmethyl)butanediamide]"
7,150,"CC(C)C[C@H](O)[C@H](O)[C@H](CC1CCCCC1)NC(=O)[C@@H](CC(=O)NC[C@@H](O)C1CCCCC1)CC1CC1 [Compound 20 (S), N^4-(S)-(2-cyclohexyl-2-hydroxyethyl)-N^1-[1(S)-(cyclohexylmethyl)-2(R),3(S)-dihydroxy-5-methylhexyl]-2(R)-(cyclopropylmethyl)butanediamide]"
8,2,"CC(C)C[C@H](O)[C@H](O)[C@H](CC1CCCCC1)NC(=O)[C@@H](CC(=O)N(CC(=O)N(C)C)CC1(O)CCCCCC1)Cc1csc(N)n1 [Compound 53, N^4-[(1-hydroxycycloheptyl)methyl]-N^4-[2-(dimethylamino)-2-oxoethyl]-N^1-[1(S)-(cyclohexylmethyl)-2(R),3(S)-dihydroxy-5-methylhexyl]-2(R)-[(2-amino-4-thiazolyl)methyl]-butanediamide]"
9,1.6,"CC(C)C[C@H](O)[C@H](O)[C@H](CC1CCCCC1)NC(=O)[C@@H](CC(=O)N(CC(=O)N(C)C)CC1(O)CCCCC1)Cc1cscn1 [Compound 34, N^4-[(1-hydroxycyclohexyl)methyl]-N^4-[2-(dimethylamino)-2-oxoethyl]-N^1-[1(S)-(cyclohexylmethyl)-2(R),3(S)-dihydroxy-5-methylhexyl]-2(R)-(4-thiazolylmethyl)butanediamide]"
10,38,"CC(C)C[C@H](O)[C@H](O)[C@H](CC1CCCCC1)NC(=O)[C@@H](CC(=O)N(C)CC1(O)CCCCC1)CC1CC1 [Compound 6, N^4-[(1-hydroxycyclohexyl)methyl]-N^4-methyl-N^1-[1(S)-(cyclohexylmethyl)-2(R),3(S)-dihydroxy-5-methylhexyl]-2(R)-(cyclopropylmethyl)butanediamide]"
11,100,"CC(C)C[C@H](O)[C@H](O)[C@H](CC1CCCCC1)NC(=O)[C@@H](CC(=O)N(CCO)CC1CCCCC1)CC1CC1 [Compound 31, N^4-(cyclohexylmethyl)-N^4-(2-hydroxyethyl)-N^1-[1(S)-(cyclohexylmethyl)-2(R),3(S)-dihydroxy-5-methylhexyl]-2(R)-(cyclopropylmethyl)butanediamide]"

# Second part, the molecule before the results:
row,SMILES,IC50 [nM]
1,"CC(=O)CN(CC1CCCCC1)C(=O)C[C@@H](Cc1cscn1)C(=O)N[C@@H](CC1CCCCC1)[C@@H](O)[C@@H](O)CC(C)C [Compound 60, N^4-(cyclohexylmethyl)-N^4-(2-oxopropyl)-N^1-[1(S)-(cyclohexylmethyl)-2(R),3(S)-dihydroxy-5-methylhexyl]-2(R)-(4-thiazolylmethyl)butanediamide]",2
2,"CC(C)C[C@H](O)[C@H](O)[C@H](CC1CCCCC1)NC(=O)[C@@H](CC(=O)N[C@H](CO)Cc1ccccc1)CC1CC1 [Compound 14, N^4-(S)-[1-(hydroxymethyl)-2-phenylethyl]-N^1-[1(S)-(cyclohexylmethyl)-2(R),3(S)-dihydroxy-5-methylhexyl]-2(R)-(cyclopropylmethyl)butanediamide]",79
3,"CC(C)C[C@H](O)[C@H](O)[C@H](CC1CCCCC1)NC(=O)[C@@H](CC(=O)NC[C@H](O)c1ccccc1)CC1CC1 [Compound 9, N^4-(R)-(2-hydroxy-2-phenylethyl)-N^1-[1(S)-(cyclohexylmethyl)-2(R),3(S)-dihydroxy-5-methylhexyl]-2(R)-(cyclopropylmethyl)butanediamide]",72
4,"CC(C)C[C@H](O)[C@H](O)[C@H](CC1CCCCC1)NC(=O)[C@@H](CC(=O)N(CC(C)O)CC1CCCCC1)Cc1cscn1 (single isomer, unassigned) [Compound 39, N^4-(cyclohexylmethyl)-N^4-[2(R or S)-hydroxypropyl]-N^1-[1(S)-(cyclohexylmethyl)-2(R),3(S)-dihydroxy-5-methylhexyl]-2(R)-(4-thiazolylmethyl)butanediamide]",8.7
5,"CC(C)C[C@H](O)[C@H](O)[C@H](CC1CCCCC1)NC(=O)[C@@H](CC(=O)N(CC1CCCC1)CC(C)(C)O)Cc1cscn1 [Compound 50, N^4-(cyclopentylmethyl)-N^4-(2-hydroxy-2-methylpropyl)-N^1-[1(S)-(cyclohexylmethyl)-2(R),3(S)-dihydroxy-5-methylhexyl]-2(R)-(4-thiazolylmethyl)butanediamide]",13
6,"CCC(CC)CN(CC(C)(C)O)C(=O)C[C@@H](Cc1csc(N)n1)C(=O)N[C@@H](CC1CCCCC1)[C@@H](O)[C@@H](O)CC(C)C [Compound 58, N^4-(2-ethylbutyl)-N^4-(2-hydroxy-2-methylpropyl)-N^1-[1(S)-(cyclohexylmethyl)-2(R),3(S)-dihydroxy-5-methylhexyl]-2(R)-[(2-amino-4-thiazolyl)methyl]butanediamide]",15
7,"CC(C)C[C@H](O)[C@H](O)[C@H](CC1CCCCC1)NC(=O)[C@@H](CC(=O)N(CC(C)O)CC1CCCCC1)Cc1cscn1 (single isomer, unassigned) [Compound 40, N^4-(cyclohexylmethyl)-N^4-[2(S or R)-hydroxypropyl]-N^1-[1(S)-(cyclohexylmethyl)-2(R),3(S)-dihydroxy-5-methylhexyl]-2(R)-(4-thiazolylmethyl)butanediamide]",11
8,"CC(C)C[C@H](O)[C@H](O)[C@H](CC1CCCCC1)NC(=O)[C@@H](CC(=O)N(Cc1ccccc1)CC(C)(C)O)Cc1csc(N)n1 [Compound 54, N^4-benzyl-N^4-(2-hydroxy-2-methylpropyl)-N^1-[1(S)-(cyclohexylmethyl)-2(R),3(S)-dihydroxy-5-methylhexyl]-2(R)-[(2-amino-4-thiazolyl)methyl]-butanediamide]",26
9,"CC(C)C[C@H](O)[C@H](O)[C@H](CC1CCCCC1)NC(=O)[C@@H](CC(=O)N(CC(=O)N(C)C)CC(O)c1ccccc1)Cc1cscn1 (mixture of isomers) [Compound 44, N^4-[2-(dimethylamino)-2-oxoethyl]-N^4-[2(R,S)-hydroxy-2-phenylethyl]-N^1-[1(S)-(cyclohexylmethyl)-2(R),3(S)-dihydroxy-5-methylhexyl]-2(R)-(4-thiazolylmethyl)butanediamide]",10
